From PubChem BioAssay (NCI)
“And” between values parts separate entries of the source, which are not always exact repeats. Identical values can stand only once.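 Test compounds were applied to cells in 96-well plates for 48 hours at 5 doses. At the GI50, growth is halved. Definition used: TGI = concentration required for complete inhibition of growth.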

Key:
Experiment in all cases: growth of human tumour cells (NCI), 48 h
[1] = tested on: MDA-MB-231 breast
[2] = tested on: HCC-2998 colon
[3] = tested on: SK-MEL-2 melanoma
[4] = tested on: OVCAR-8 ovarian
[5] = tested on: K-562 leukemia
[6] = tested on: UACC-257 melanoma
[7] = tested on: HCT-15 colon
[8] = tested on: IGROV1 ovarian
[9] = tested on: KM12 colon
[10] = tested on: MOLT-4 leukemia

CN1CCN(c2ccc3nc(-c4[nH]ncc4Nc4ncnc5[nH]ccc45)[nH]c3c2)CC1
GI50 [1]: 0.184 µM | TGI [1]: 0.801 µM | GI50 [2]: 0.375 µM | TGI [2]: 4.52 µM | GI50 [3]: 0.39 µM | TGI [3]: 1.91 µM | GI50 [4]: 0.381 µM | TGI [4]: > 31.1 µM | GI50 [5]: 0.299 µM | TGI [5]: > 100 µM | GI50 [6]: 0.571 µM | TGI [6]: 20.4 µM | GI50 [7]: 1.38 µM | TGI [7]: 13.3 µM | GI50 [8]: 0.189 µM | TGI [8]: 1.41 µM | GI50 [9]: 0.517 µM | TGI [9]: 11.6 µM | GI50 [10]: 0.429 µM | TGI [10]: 14.4 µM

O=C(Nc1ccccc1/C=C/c1n[nH]c2ccccc12)c1ccccc1
GI50 [1]: 3.45 µM | TGI [1]: 15.7 µM | GI50 [2]: 1.62 µM | TGI [2]: 4.23 µM | GI50 [3]: 5.03 µM | TGI [3]: 16.5 µM | GI50 [4]: 3.95 µM | TGI [4]: 14.6 µM | GI50 [5]: 3.47 µM | TGI [5]: 12.6 µM | GI50 [6]: 2.36 µM | TGI [6]: 16.5 µM | GI50 [7]: 2.37 µM | TGI [7]: 8.53 µM | GI50 [8]: 6.47 µM | TGI [8]: 22.4 µM | GI50 [9]: 0.0648 µM | TGI [9]: 1.65 µM | GI50 [10]: 7.27 µM | TGI [10]: 38.2 µM

CC(NC(=O)c1ccc(Cl)c(Cl)c1)c1ccc(-c2ccccc2)cc1 (centres undefined)
TGI [1]: > 100 µM | TGI [2]: > 100 µM | TGI [3]: > 100 µM | TGI [4]: 82.5 µM | TGI [5]: > 100 µM | TGI [6]: > 100 µM | TGI [7]: > 100 µM | TGI [8]: > 100 µM | TGI [9]: > 100 µM

CCn1c(-c2nonc2N)nc2cnc(Oc3cccc(NC(=O)c4ccc(OCCN5CCOCC5)cc4)c3)cc21
GI50 [1]: 1.65 µM | TGI [1]: > 25 µM | GI50 [2]: 15.2 µM | TGI [2]: > 25 µM | GI50 [3]: 7.54 µM | TGI [3]: > 25 µM | GI50 [4]: 6.25 µM | TGI [4]: > 25 µM | GI50 [5]: 7.38 µM | TGI [5]: > 25 µM | GI50 [6]: 7.09 µM | TGI [6]: > 25 µM | GI50 [7]: 2.16 µM | TGI [7]: > 25 µM | GI50 [8]: 2.98 µM | TGI [8]: > 20.3 µM | GI50 [9]: 7.63 µM | TGI [9]: > 25 µM | GI50 [10]: 4.29 µM | TGI [10]: 24.4 µM

O=C(O)c1c2c(c(O)c3c1CN(C1CCCCC1)CO3)OCN(C1CCCCC1)C2
TGI [1]: > 100 µM | TGI [2]: 84.1 µM | TGI [3]: > 100 µM | TGI [4]: > 100 µM | TGI [5]: > 100 µM | TGI [6]: > 100 µM | TGI [7]: > 100 µM | TGI [8]: > 100 µM | TGI [9]: > 100 µM | TGI [10]: 40.1 µM

COC1C(OC(=O)/C=C/C=C/C=C/C=C/C(=O)O)CCC2(CO2)C1C1(C)OC1CC=C(C)C (centres undefined)
GI50 [1]: 0.525 µM | TGI [1]: 80.5 µM | GI50 [2]: 0.231 µM | TGI [2]: > 71.4 µM | TGI [3]: > 85.3 µM | GI50 [4]: 0.301 µM | TGI [4]: > 92 µM | TGI [5]: > 89.6 µM | GI50 [6]: 0.489 µM | TGI [6]: > 84.2 µM | GI50 [7]: 0.296 µM | TGI [7]: > 93.9 µM | TGI [8]: > 95.1 µM | GI50 [9]: 0.471 µM | TGI [9]: 29.4 µM | GI50 [10]: 0.347 µM | TGI [10]: 78.7 µM

CC(C)(C)CNCCO
TGI [1]: > 100 µM | TGI [2]: > 100 µM | TGI [3]: > 100 µM | TGI [4]: > 100 µM | TGI [5]: > 100 µM | TGI [6]: > 100 µM | TGI [7]: > 100 µM | TGI [8]: > 100 µM | TGI [9]: > 100 µM | TGI [10]: > 45.7 µM

C=CC(=O)N1CCN([C@@H](CC2CC2)c2ccc([C@H](C)Nc3ncc4c(n3)N(CC)C(=O)OC4)cc2)CC1
GI50 [1]: 12 µM | TGI [1]: 27.4 µM | GI50 [2]: 13 µM | TGI [2]: 28 µM | GI50 [3]: 12.6 µM | TGI [3]: 27.4 µM | GI50 [4]: 11.1 µM | TGI [4]: 26.7 µM | GI50 [5]: 5.34 µM | TGI [5]: 69.5 µM | GI50 [6]: 10.9 µM | TGI [6]: 25.5 µM | GI50 [7]: 10.3 µM | TGI [7]: 25.5 µM | GI50 [8]: 4.58 µM | TGI [8]: 17.5 µM | GI50 [9]: 15.1 µM | TGI [9]: 34.6 µM | GI50 [10]: 4.51 µM | TGI [10]: 26.4 µM

COc1cccc(C2CC(C)(O)Oc3cc4c(cc32)OCO4)c1 (centres undefined)
TGI [1]: 96.2 µM | TGI [2]: > 100 µM | TGI [3]: 43.6 µM | TGI [4]: > 100 µM | TGI [5]: > 100 µM | TGI [6]: > 100 µM | TGI [7]: 83.3 µM | TGI [8]: > 100 µM | TGI [9]: > 100 µM | TGI [10]: 60.5 µM

COc1ccc2c(c1[N+](=O)[O-])CC[C@@H]1[C@@H]2CC[C@]2(C)C(=O)CC[C@@H]12
GI50 [1]: 400 µM | TGI [1]: > 905 µM | GI50 [2]: > 25 µM | TGI [2]: > 1000 µM | GI50 [3]: 275 µM | GI50 [4]: 462 µM | TGI [4]: > 1000 µM | GI50 [5]: > 1000 µM | GI50 [6]: > 931 µM | TGI [6]: > 1000 µM | GI50 [7]: > 1000 µM | TGI [7]: > 1000 µM | GI50 [8]: 741 µM | TGI [8]: > 1000 µM | GI50 [9]: > 1000 µM | TGI [9]: > 1000 µM | GI50 [10]: > 1000 µM | TGI [10]: > 1000 µM

Clc1cccc(-c2cc(-c3ccc4c(c3)OCCO4)[nH]n2)c1
GI50 [1]: 7.75 µM | TGI [1]: 47.6 µM | GI50 [2]: 7.26 µM | TGI [2]: 51.4 µM | GI50 [3]: 18.9 µM | TGI [3]: 74.9 µM | GI50 [4]: 6.74 µM | TGI [4]: 53.3 µM | GI50 [5]: 1.04 µM | TGI [5]: 250 µM | GI50 [6]: 25.4 µM | TGI [6]: 55.3 µM | GI50 [7]: 1.11 µM | TGI [7]: 33.5 µM | GI50 [8]: 2.47 µM | TGI [8]: 36.7 µM | GI50 [9]: 1.01 µM | TGI [9]: 38.5 µM | GI50 [10]: 3.15 µM | TGI [10]: 74.6 µM

CN(C)CCN1C(=O)c2cccc3cc(N)cc(c23)C1=O
GI50 [1]: 8.01 µM | TGI [1]: 34.8 µM and 9.64 µM | GI50 [2]: 4.69 µM | TGI [2]: 22.1 µM and 12 µM | GI50 [3]: 3.73 µM | TGI [3]: 13 µM and 9.4 µM | GI50 [4]: 2.46 µM | TGI [4]: 30.5 µM and 7.38 µM | TGI [5]: > 100 µM and 37.4 µM | GI50 [6]: 2.55 µM | TGI [6]: 9.51 µM and 12.8 µM | TGI [7]: > 50 µM and 16 µM | GI50 [8]: 2.68 µM | TGI [8]: > 44.1 µM and 20.8 µM | GI50 [9]: 3.32 µM | TGI [9]: 26.5 µM and 25.5 µM | GI50 [10]: 1.88 µM | TGI [10]: > 100 µM and 13.5 µM

CC(C)CC(NC(=O)C(O)C(N)Cc1ccccc1)C(=O)O (centres undefined)
TGI [1]: > 100 µM | TGI [2]: > 100 µM | TGI [3]: > 100 µM | TGI [4]: > 100 µM | TGI [5]: > 100 µM | TGI [6]: > 100 µM | TGI [7]: > 100 µM | TGI [8]: > 100 µM | TGI [9]: > 100 µM | TGI [10]: > 100 µM

Clc1ccc(NCNC2Nc3ccccc3N2)cc1Cl
TGI [1]: > 100 µM | TGI [2]: > 100 µM | TGI [3]: 79.6 µM | TGI [4]: 46.6 µM | TGI [5]: > 100 µM | TGI [6]: > 100 µM | TGI [7]: > 100 µM | TGI [9]: 92.5 µM | TGI [10]: > 100 µM

Oc1ccc(CCNc2nc3ccccc3c3[nH]c4ccccc4c23)cc1O
GI50 [1]: 2.98 µM | TGI [1]: 11.8 µM | GI50 [2]: 3.54 µM | TGI [2]: 14.1 µM | GI50 [3]: 1.73 µM | TGI [3]: 3.59 µM | GI50 [4]: 1.9 µM | TGI [4]: 3.85 µM | GI50 [5]: 1.83 µM | TGI [5]: 4.13 µM | GI50 [6]: 25.5 µM | TGI [6]: 40.2 µM | GI50 [7]: 1.9 µM | TGI [7]: 3.95 µM | GI50 [9]: 1.59 µM | TGI [9]: 4.19 µM | GI50 [10]: 2.16 µM | TGI [10]: 5.38 µM
